Results taken from article PMC11094307, “Marine-derived EGFR inhibitors: novel compounds targeting breast cancer growth and drug resistance” (Frontiers in Pharmacology, 2024).

Legend:
Cleaved Caspase-3 = assay: Western blotting of MCF-7 lysates, cleaved caspase-3; assay type: cell-based, human; conditions: for Cleaved Caspase-3 WB Normalized: control 0 µM 0.213235397
Protocol: (§1) MCF-7 cell lysates were prepared by rinsing the cells twice with PBS and then solubilizing them in lysis buffer (NP40 supplemented with protease and phosphatase inhibitor cocktails) on ice. The solubilization process involved rotating the lysis buffer/cell mixture end over end for 10 min at 4°C. After centrifugation for 10 min at 4°C to remove insoluble material, the protein concentration of the solubilized protein was determined using a BCA assay. Subsequently, samples were diluted in SDS sample buffer. Equivalent amounts of protein were separated by SDS-PAGE, transferred to PVDF membranes, and probed with the indicated antibody. Prior to incubation with primary antibodies overnight at 4°C, the membranes were blocked with 5% skim milk-TBST. The antibodies and their sources were as follows: PARP1 (1:500, Santa Cruz Biotechnology), Cleaved Caspase-3 (1:1000, Cell Signaling Technology), BAX (1:500, Santa Cruz Biotechnology), BCL-2 (1:500, Santa Cruz Biotechnology), and GAPDH (1:500, Santa Cruz Biotechnology). Following incubation with horseradish peroxidase-conjugated goat anti-mouse or goat anti-rabbit secondary antibody (Santa Cruz Biotechnology), the detected proteins were visualized using the Pierce Enhanced Chemiluminescence (ECL) reagent and a UV Products imaging system. Band intensities were quantified using the National Institutes of Health ImageJ software.

[1] = molecular target: T1, EGFR extracellular ligand binding domain (Homo sapiens, UniProt P00533); assay: SPR binding (Biacore 8K)
T1 construct: His; purchased Sinobiological, China
T1 sequence (P00533 25-645 limits assumed): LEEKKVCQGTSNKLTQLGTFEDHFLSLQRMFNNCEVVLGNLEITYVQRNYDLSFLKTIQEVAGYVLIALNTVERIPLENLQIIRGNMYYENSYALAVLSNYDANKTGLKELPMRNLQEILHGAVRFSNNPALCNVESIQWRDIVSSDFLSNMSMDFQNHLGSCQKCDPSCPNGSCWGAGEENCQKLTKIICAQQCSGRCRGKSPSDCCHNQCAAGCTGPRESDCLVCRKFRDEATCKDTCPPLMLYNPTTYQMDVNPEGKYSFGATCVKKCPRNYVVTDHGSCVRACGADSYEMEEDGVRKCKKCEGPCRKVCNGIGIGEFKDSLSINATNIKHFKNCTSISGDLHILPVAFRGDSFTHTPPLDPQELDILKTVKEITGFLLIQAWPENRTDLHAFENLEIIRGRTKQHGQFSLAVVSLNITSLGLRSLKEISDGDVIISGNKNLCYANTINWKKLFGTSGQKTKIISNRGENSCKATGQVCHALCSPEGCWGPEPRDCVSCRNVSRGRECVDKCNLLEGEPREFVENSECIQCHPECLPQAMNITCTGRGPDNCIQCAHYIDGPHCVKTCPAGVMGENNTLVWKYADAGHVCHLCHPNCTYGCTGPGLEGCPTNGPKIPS
Text: (§2) The extracellular ligand-binding domain of EGFR, tagged with His, and the intracellular tyrosine kinase (TK) domain of EGFR, tagged with GST, were acquired from Sinobiological, China. Kinase assay systems for both wild-type EGFR and its mutants—T790M, L858R, and the dual L858R/T790M—were procured from Promega Corporation, USA. Cell lines including MCF-7, A549, A431, H1299, HL-60, and MCF-10A were obtained from the China Infrastructure Cell Line Resources.
(§3) The binding affinities of compounds towards EGFR extracellular ligand binding domain and EGFR intracellular kinase domain were assayed using the SPR-based Biacore 8K instrument (Cytiva). Considering the purchased EGFR was fused with GST tag, GST alone was also immobilized on the chip to do the binding measurement. All the proteins were respectively immobilized on a CM5 sensor chip by using standard amine-coupling at 25°C with running buffer HEPES-P (20 mM HEPES buffer, […], 0.05% surfactant P20, pH 7.4). A reference channel was only activated and blocked to eliminate compound unspecific binding to the surface of the chip. The immobilization level of EGFR extracellular ligand binding domain, EGFR intracellular kinase domain and GST were all about 10,000 RU. […] Extra wash with 50% DMSO was added to remove the last remaining sample in the pipeline.

H1299 cells = assay: MTT assay, H1299; assay type: cell-based, human; conditions: H1299 (high EGFR-expressing), 10 μM
Protocol: (§4) The cell lines MCF-7 and A431 were cultured in Dulbecco’s Modified Eagle’s Medium (DMEM, Gibco, USA), while HL-60, H1299, and A549 cells were maintained in RPMI-1640 medium (Gibco, USA). Both mediums were enriched with 10% fetal bovine serum and 1% penicillin/streptomycin. […] All cell cultures were incubated at 37°C in an atmosphere containing 5% CO2.
(§5) Cells in the exponential growth phase were seeded into 96-well plates and allowed to adhere overnight. Subsequently, they were treated in triplicate with various concentrations of the compounds (0, 1.56, 3.13, 6.25, 12.5, 25, 50, 100 µM), […]. After 24 h, 20 µL of Methyl-thiazolyldiphenyl-tetrazolium bromide (MTT, 5 mg/mL, Thermo Fisher Scientific) was added to each well and incubated for a minimum of 4 h. Following the incubation, the medium containing the compounds and MTT was removed from each well, and 200 µL of dimethyl sulfoxide (DMSO) was added. The plates were then shaken for 10 min at 37°C to dissolve the formazan crystals. The absorbance was measured using a microplate reader (BioTek Synergy 4) at a wavelength of 490 nm.

[2] = molecular target: EGFR intracellular kinase domain (Homo sapiens, UniProt P00533); assay: SPR binding (Biacore 8K); design: the intracellular tyrosine kinase (TK) domain of EGFR, tagged with GST; purchased Sinobiological, China; conditions: without ATP
Sequence of EGFR intracellular kinase domain (P00533 712-979 limits assumed): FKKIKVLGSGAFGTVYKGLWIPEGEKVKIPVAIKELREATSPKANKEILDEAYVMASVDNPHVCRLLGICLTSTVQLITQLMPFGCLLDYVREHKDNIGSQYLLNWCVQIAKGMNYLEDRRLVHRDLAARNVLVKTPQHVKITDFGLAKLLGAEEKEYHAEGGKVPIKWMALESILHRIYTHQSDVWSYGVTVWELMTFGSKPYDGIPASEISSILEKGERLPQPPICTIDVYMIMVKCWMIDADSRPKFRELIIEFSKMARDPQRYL
Text: as §2, §3

BCL-2 = assay: Western blotting of MCF-7 lysates, BCL-2; assay type: cell-based, human; conditions: for BCL-2 WB Normalized: control 0 µM 0.841817367
Protocol: as §1

HL-60 cells = assay: MTT assay, HL-60; assay type: cell-based, human; conditions: HL-60 (low EGFR-expressing), 10 μM
Protocol: as §4, §5

ECK = ECK (Homo sapiens, UniProt P29317); assay: Kinase profiling; assay type: biochemical; conditions: one of the other seven tyrosine kinases
Sequence of ECK (P29317 24-976): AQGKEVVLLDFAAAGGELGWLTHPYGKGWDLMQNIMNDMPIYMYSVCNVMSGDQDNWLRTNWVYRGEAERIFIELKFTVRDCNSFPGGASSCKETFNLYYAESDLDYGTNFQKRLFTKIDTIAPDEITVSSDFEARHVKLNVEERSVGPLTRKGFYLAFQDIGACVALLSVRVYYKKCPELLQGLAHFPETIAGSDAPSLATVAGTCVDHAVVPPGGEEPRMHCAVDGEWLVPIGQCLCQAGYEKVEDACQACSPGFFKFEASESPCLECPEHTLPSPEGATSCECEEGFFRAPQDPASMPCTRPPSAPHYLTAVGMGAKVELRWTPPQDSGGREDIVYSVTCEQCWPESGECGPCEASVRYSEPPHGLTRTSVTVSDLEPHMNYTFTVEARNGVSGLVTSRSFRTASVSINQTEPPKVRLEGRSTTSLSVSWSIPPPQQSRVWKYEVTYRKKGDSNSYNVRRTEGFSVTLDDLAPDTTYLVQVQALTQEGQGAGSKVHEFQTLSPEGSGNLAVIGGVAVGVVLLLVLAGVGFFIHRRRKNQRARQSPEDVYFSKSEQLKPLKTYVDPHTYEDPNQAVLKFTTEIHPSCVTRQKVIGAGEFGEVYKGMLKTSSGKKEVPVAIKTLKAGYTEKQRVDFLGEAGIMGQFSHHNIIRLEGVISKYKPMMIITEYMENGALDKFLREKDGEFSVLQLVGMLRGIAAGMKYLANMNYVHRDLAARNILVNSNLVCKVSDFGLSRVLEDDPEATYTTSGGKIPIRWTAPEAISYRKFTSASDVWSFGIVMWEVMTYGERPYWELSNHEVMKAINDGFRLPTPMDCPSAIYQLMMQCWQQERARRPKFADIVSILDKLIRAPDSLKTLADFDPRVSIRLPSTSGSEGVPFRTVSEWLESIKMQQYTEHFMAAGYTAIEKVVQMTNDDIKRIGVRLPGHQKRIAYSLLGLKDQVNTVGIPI
Protocol: (§6) The experiments were conducted in accordance with the manufacturer’s guidelines (Promega). The procedure began with a kinase reaction, where 5 μL of 1× kinase buffer was utilized, and the mixture was incubated at room temperature for 60 min. This step was followed by the addition of 5 μL of ADP-Glo™ reagent to terminate the kinase reaction and to deplete any remaining ATP, with a subsequent incubation period of 40 min at room temperature. Next, 10 μL of kinase detection reagent was added to convert ADP back into ATP, and luciferase along with luciferin was introduced to facilitate ATP detection. This mixture was then incubated at room temperature for an additional 30 min. Detection was carried out using a BioTek Synergy4 instrument, and data analysis, including curve fitting and presentation, was performed using GraphPad Prism version 5.0.

FGFR3 = FGFR3 (Homo sapiens, UniProt P22607); assay: Kinase profiling; assay type: biochemical; conditions: one of the other seven tyrosine kinases
Sequence of FGFR3 (P22607 23-806): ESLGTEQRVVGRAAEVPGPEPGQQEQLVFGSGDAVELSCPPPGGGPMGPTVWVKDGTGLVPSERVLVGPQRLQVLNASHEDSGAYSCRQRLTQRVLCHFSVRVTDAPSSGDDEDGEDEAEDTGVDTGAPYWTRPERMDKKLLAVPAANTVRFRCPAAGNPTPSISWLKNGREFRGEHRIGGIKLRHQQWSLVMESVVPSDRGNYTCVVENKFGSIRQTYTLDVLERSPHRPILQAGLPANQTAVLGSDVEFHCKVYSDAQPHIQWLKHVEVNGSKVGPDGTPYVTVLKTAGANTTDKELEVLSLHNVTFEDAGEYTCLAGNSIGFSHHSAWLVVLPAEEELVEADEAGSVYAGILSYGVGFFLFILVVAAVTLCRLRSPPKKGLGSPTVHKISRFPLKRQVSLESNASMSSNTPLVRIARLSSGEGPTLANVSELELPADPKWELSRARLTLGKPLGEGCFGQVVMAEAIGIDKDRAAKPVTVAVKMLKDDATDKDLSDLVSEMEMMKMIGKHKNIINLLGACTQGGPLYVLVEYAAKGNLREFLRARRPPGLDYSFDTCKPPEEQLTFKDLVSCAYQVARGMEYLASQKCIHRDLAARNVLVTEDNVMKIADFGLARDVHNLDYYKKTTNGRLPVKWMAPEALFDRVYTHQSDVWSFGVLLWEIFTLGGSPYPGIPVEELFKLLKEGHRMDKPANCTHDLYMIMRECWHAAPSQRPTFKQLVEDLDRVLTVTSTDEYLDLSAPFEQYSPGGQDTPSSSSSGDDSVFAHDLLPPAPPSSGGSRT
Protocol: as §6

FAK = FAK (Homo sapiens, UniProt Q05397); assay: Kinase profiling; assay type: biochemical; conditions: one of the other seven tyrosine kinases
Protocol: as §6

ABL = ABL (Homo sapiens, UniProt P00519); assay: Kinase profiling; assay type: biochemical; conditions: one of the other seven tyrosine kinases
Sequence of ABL (P00519 whole entry): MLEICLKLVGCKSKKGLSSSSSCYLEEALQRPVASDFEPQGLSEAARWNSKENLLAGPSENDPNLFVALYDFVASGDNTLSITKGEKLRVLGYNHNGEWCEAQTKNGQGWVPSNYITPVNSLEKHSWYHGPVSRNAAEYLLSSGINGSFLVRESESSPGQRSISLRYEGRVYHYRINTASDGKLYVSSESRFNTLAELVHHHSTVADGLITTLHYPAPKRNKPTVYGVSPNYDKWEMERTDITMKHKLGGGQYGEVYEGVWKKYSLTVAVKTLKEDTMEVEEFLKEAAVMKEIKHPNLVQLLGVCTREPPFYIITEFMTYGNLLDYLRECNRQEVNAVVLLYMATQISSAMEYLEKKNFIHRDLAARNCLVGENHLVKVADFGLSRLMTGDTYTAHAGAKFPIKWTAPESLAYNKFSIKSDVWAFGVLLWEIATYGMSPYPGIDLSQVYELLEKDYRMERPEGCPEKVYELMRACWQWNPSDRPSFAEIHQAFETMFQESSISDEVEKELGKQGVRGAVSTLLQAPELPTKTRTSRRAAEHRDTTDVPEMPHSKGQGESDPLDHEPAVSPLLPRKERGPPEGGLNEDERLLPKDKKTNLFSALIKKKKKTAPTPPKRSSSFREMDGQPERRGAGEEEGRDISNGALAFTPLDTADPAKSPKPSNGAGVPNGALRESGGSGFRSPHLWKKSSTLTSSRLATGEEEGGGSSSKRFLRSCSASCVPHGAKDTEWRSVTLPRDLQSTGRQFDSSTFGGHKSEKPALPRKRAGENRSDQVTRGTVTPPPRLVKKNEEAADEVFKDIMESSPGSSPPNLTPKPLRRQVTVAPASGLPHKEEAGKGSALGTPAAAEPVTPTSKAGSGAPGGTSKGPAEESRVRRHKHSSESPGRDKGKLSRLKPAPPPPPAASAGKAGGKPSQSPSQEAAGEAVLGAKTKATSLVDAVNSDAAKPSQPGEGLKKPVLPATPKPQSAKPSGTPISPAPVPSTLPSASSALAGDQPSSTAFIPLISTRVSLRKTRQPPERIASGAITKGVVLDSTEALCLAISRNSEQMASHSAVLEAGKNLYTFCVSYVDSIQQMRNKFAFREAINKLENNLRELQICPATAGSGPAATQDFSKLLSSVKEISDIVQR
Protocol: as §6

FLT1 = FLT1 (Homo sapiens, UniProt P17948); assay: Kinase profiling; assay type: biochemical; conditions: one of the other seven tyrosine kinases
Sequence of FLT1 (P17948 27-1338): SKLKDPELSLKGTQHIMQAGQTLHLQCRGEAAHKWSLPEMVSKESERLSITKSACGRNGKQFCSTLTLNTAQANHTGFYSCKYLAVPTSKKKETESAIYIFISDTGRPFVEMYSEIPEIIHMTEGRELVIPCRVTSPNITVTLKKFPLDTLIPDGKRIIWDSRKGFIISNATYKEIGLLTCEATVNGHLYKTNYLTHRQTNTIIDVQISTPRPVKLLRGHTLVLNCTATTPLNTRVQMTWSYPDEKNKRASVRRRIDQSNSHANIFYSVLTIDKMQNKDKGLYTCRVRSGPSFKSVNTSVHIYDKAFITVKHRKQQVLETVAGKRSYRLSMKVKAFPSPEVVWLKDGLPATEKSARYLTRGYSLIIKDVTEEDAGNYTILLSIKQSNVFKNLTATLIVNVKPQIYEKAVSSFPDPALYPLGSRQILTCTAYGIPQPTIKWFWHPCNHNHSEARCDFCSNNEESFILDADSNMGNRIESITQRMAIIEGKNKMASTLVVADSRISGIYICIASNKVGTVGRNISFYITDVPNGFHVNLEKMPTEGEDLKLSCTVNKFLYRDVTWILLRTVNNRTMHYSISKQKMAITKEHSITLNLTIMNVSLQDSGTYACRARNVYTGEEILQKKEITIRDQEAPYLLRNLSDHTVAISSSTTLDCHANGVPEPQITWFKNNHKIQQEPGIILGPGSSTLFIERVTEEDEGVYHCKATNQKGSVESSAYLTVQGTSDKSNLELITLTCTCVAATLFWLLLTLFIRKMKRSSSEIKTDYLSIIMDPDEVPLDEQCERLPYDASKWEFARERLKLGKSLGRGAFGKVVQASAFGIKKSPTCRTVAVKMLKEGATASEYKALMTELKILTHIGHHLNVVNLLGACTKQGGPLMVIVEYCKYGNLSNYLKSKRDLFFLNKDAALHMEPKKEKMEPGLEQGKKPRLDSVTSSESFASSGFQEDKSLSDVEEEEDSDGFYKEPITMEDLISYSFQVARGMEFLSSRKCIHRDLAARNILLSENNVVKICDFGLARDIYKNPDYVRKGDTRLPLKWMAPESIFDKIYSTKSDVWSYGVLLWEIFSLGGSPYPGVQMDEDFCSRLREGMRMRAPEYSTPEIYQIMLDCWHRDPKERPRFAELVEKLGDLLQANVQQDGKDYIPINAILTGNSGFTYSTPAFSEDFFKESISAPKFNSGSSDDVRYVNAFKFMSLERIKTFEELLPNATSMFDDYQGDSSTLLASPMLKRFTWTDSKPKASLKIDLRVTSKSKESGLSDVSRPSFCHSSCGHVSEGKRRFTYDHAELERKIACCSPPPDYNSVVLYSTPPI
Protocol: as §6

FGFR1 = FGFR1 (Homo sapiens, UniProt P11362); assay: Kinase profiling; assay type: biochemical; conditions: one of the other seven tyrosine kinases
Protocol: as §6

SMILES: COC(=O)C/C(C)=C/C(=O)O[C@@H]1C[C@@H](C)[C@H]2[C@@H](C=C[C@H](CC(C)C)[C@]2(C)C(=O)/C=C\O)[C@@H]1O [Tandyukisin]
- Cleaved Caspase-3 WB Gray Value (Cleaved Caspase-3; 5 µM): 17172.004
- Cleaved Caspase-3 WB Normalized (Cleaved Caspase-3; 5 µM): 0.3916
- Cleaved Caspase-3 WB Gray Value (Cleaved Caspase-3; 10 µM): 22734.418
- Cleaved Caspase-3 WB Normalized (Cleaved Caspase-3; 10 µM): 0.5222
- Cleaved Caspase-3 WB Gray Value (Cleaved Caspase-3; 20 µM): 173083.238
- Cleaved Caspase-3 WB Normalized (Cleaved Caspase-3; 20 µM): 5.061
- expression level of cleaved caspase-3 protein (Cleaved Caspase-3; MCF-7, upon treatment): increased
- Kd [1]: 101 µM
- kon ([1]; Figure 4C-D, read-out: ka, EGFR ligand binding domain): 109 M⁻¹ s⁻¹
- cell lethality percentage (H1299 cells): 60.3% ± 3.9%
- Kd [2]: 5.57 µM
- kon ([2]; Figure 4A-B, read-out: ka, EGFR kinase domain): 3050 M⁻¹ s⁻¹
- BCL-2 WB Gray Value (BCL-2; 5 µM): 41097.258
- BCL-2 WB Normalized (BCL-2; 5 µM): 0.9373
- BCL-2 WB Gray Value (BCL-2; 10 µM): 21588.48
- BCL-2 WB Normalized (BCL-2; 10 µM): 0.4959
- BCL-2 WB Gray Value (BCL-2; 20 µM): 7215.723
- BCL-2 WB Normalized (BCL-2; 20 µM): 0.211
- cell lethality percentage (HL-60 cells): 11.1% ± 1.2%
- IC50 (ECK): > 100 µM
- IC50 (FGFR3): > 100 µM
- IC50 (FAK): > 100 µM
- IC50 (ABL): > 100 µM
- IC50 (FLT1): > 100 µM
- IC50 (FGFR1): > 100 µM
